Reference: patent US10030016B2 (Sunesis Pharmaceuticals, Inc., priority 2009, dated 2018)
Counter-ions that a name gives are not always drawn. Like-named read-outs stand apart in the source and are kept apart here.

Legend:
PDK1 = PDK1 (Homo sapiens (Human), UniProt O15530); experiment: PDK1 kinase assay (coupled PDK1/AKT/FAM-crosstide assay, IMAP fluorescence polarization); type: biochemical; details: inhibition of phospo-PDK1 in vitro
In short: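 Inhibition is derived by 4-parameter fitting of ΔmP from an IMAP fluorescence polarization read of FAM-crosstide (100 nM) phosphorylation. The cascade ran 30 min at 25 °C with 40 μM ATP, using insect-cell GST-PDK1 51-359 (0.75 nM) driving 10 nM unphosphorylated AKT2 140-467-PIFtide fusion.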

[1] = system: phospho-akt (Thr308) in PC-3 cells; experiment: Inhibition of phospho-akt (Thr308) in PC-3 cells, MSD phospho-akt 308 ELISA kit; type: cell-based; details: Homo sapiens, inhibition of P308 Akt in PC-3 cells, 2 hours, no serum, MSD, read-out: EC50
In short: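 Electrochemiluminescent MSD ELISA of Thr308-phosphorylated Akt after a 2 h serum-free compound exposure of PC-3 cells (15,000/well, plated overnight). Controls: DMSO (high), 5 μM wortmannin (low). Lysate binding overnight at 4 °C; detection antibody 1 h at room temperature.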

PDK1, sequence (O15530 51-359): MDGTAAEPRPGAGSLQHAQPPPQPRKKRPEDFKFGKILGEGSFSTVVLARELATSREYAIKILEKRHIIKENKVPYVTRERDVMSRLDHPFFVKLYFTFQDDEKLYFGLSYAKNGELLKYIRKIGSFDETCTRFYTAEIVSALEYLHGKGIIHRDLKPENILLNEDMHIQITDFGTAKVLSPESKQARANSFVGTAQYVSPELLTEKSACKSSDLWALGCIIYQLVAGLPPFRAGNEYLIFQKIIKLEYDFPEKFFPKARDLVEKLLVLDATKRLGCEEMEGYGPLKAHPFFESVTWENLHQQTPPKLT

Structure (SMILES) | IC50 (PDK1) | EC50 [1] | EC50 ([1]; PC-3, 2 h)
COc1cc(NC(=O)c2cccnc2NCc2ccc(-c3ccc4ncnc(N)c4c3)s2)cc(C(F)(F)F)c1 [Example 3.52, 2-({[5-(4-aminoquinazolin-6-yl)thiophen-2-yl]methyl}amino)-N-[3-methoxy-5-(trifluoromethyl)phenyl]pyridine-3-carboxamide (TFA salt)] | > 5000 nM | > 10000 nM | –
Nc1ncnc2ccc(-c3ccc(CNc4ncccc4C(=O)Nc4cccc(C(F)(F)F)c4)s3)cc12 [Example 3.53, 2-({[5-(4-aminoquinazolin-6-yl)thiophen-2-yl]methyl}amino)-N-[3-(trifluoromethyl)phenyl]pyridine-3-carboxamide (TFA salt)] | > 5000 nM | > 10000 nM | –
Nc1ncnc2ccc(-c3ccc(CNc4ncccc4C(=O)Nc4ccc(Cl)c(F)c4)s3)cc12 [Example 3.55, 2-({[5-(4-aminoquinazolin-6-yl)thiophen-2-yl]methyl}amino)-N-(4-chloro-3-fluorophenyl) pyridine-3-carboxamide (TFA salt)] | 100 to 1000 nM | > 10000 nM | –
Nc1ncnc2ccc(-c3ccc(CNc4ncccc4C(=O)NCc4ccccc4)s3)cc12 [Example 3.56, 2-({[5-(4-aminoquinazolin-6-yl)thiophen-2-yl]methyl}amino)-N-benzylpyridine-3-carboxamide (TFA salt)] | 100 to 1000 nM | 1000 to 10000 nM | –
Nc1ncnc2ccc(-c3ccc(CNc4ncccc4C(=O)NCc4cncnc4)s3)cc12 [Example 3.57, 2-({[5-(4-aminoquinazolin-6-yl)thiophen-2-yl]methyl}amino)-N-(pyrimidin-5-ylmethyl) pyridine-3-carboxamide (TFA salt)] | 1000 to 5000 nM | 1000 to 10000 nM | –
C[C@H](NC(=O)c1cccnc1NCc1ccc(-c2ccc3ncnc(N)c3c2)s1)c1ccccn1 [Example 3.58, (S)-2-(((5-(4-aminoquinazolin-6-yl)thiophen-2-yl)methyl)amino)-N-(1-(pyridin-2-yl)ethyl) nicotinamide (TFA salt)] | 100 to 1000 nM | – | 1000 to 10000 nM
C[C@H](NC(=O)c1cccnc1NCc1ccc(-c2ccc3ncnc(N)c3c2)s1)c1cncc(F)c1 [Example 3.59, (S)-2-(((5-(4-aminoquinazolin-6-yl)thiophen-2-yl)methyl)amino)-N-(1-(5-(fluoropyridin-3-yl)ethyl)nicotinamide (TFA salt)] | < 100 nM | 1000 to 10000 nM | –
C[C@H](NC(=O)c1cccnc1NCc1ccc(-c2ccc3ncnc(N)c3c2)s1)c1cccnc1 [Example 3.60, (S)-2-(((5-(4-aminoquinazolin-6-yl)thiophen-2-yl)methyl)amino)-N-(1-(pyridin-3-yl)ethyl) nicotinamide (TFA salt)] | 100 to 1000 nM | 1000 to 10000 nM | –
C[C@H](NC(=O)c1cccnc1NCc1ccc(-c2ccc3ncnc(N)c3c2)s1)c1ccc(F)cc1F [Example 3.61, (S)-2-(((5-(4-aminoquinazolin-6-yl)thiophen-2-yl)methyl)amino)-N-(1-(2,4-difluorophenyl)ethyl) nicotinamide (TFA salt)] | 100 to 1000 nM | > 10000 nM | –
C[C@H](NC(=O)c1cccnc1NCc1ccc(-c2ccc3ncnc(N)c3c2)s1)c1cc(F)cc(F)c1 [Example 3.62, (S)-2-(((5-(4-aminoquinazolin-6-yl)thiophen-2-yl)methyl)amino)-N-(1-(3,5-difluorophenyl)ethyl) nicotinamide (TFA salt)] | < 100 nM | 1000 to 10000 nM | –
C[C@H](NC(=O)c1cccnc1NCc1ccc(-c2ccc3ncnc(N)c3c2)s1)c1cc(F)c(F)c(F)c1 [Example 3.63, (S)-2-(((5-(4-aminoquinazolin-6-yl)thiophen-2-yl)methyl)amino)-N-(1-(3,4,5-trifluorophenyl)ethyl) nicotinamide (TFA salt)] | < 100 nM | < 1000 nM | –
Nc1ncnc2ccc(-c3ccc(CNc4ncccc4C(=O)N(Cc4cncc(F)c4)Cc4cncc(F)c4)s3)cc12 [Example 3.64, 2-(((5-(4-aminoquinazolin-6-yl)thiophen-2-yl)methyl)amino)-N,N-bis((5-fluoropyridin-3-yl)methyl)nicotinamide (TFA salt)] | > 5000 nM | 1000 to 10000 nM | –
C[C@H](NC(=O)c1cccnc1NCc1ccc(-c2ccc3ncnc(N)c3c2)s1)c1ccc(F)cn1 [Example 3.66, 2-({[5-(4-aminoquinazolin-6-yl)thiophen-2-yl]methyl}amino)-N-[(1S)-1-(5-fluoropyridin-2-yl)ethyl] pyridine-3-carboxamide (TFA salt)] | 100 to 1000 nM | 1000 to 10000 nM | –
Cc1ncc(CNC(=O)c2cccnc2NCc2ccc(-c3ccc4ncnc(N)c4c3)s2)cc1F [Example 3.67, 2-(((5-(4-aminoquinazolin-6-yl)thiophen-2-yl)methyl)amino)-N-((5-fluoro-6-methylpyridin-3-yl)methyl)nicotinamide (TFA salt)] | 1000 to 5000 nM | – | > 10000 nM
Nc1ncnc2ccc(-c3ccc(CNc4nccnc4C(=O)NCc4ccc(F)cc4)s3)cc12 [Example 3.68, 3-({[5-(4-aminoquinazolin-6-yl)thiophen-2-yl]methyl}amino)-N-(4-fluorobenzyl) pyrazine-2-carboxamide (TFA salt)] | < 100 nM | 1000 to 10000 nM | –
C[C@H](NC(=O)c1nccnc1NCc1ccc(-c2ccc3ncnc(N)c3c2)s1)c1cccc(F)c1 [Example 3.69, 3-({[5-(4-aminoquinazolin-6-yl)thiophen-2-yl]methyl}amino)-N-[(1S)-1-(3-fluorophenyl)ethyl] pyrazine-2-carboxamide (TFA salt)] | < 100 nM | 1000 to 10000 nM | –
C[C@H](NC(=O)c1nccnc1NCc1ccc(-c2ccc3ncnc(N)c3c2)s1)c1ccc(F)cc1 [Example 3.70, 3-({[5-(4-aminoquinazolin-6-yl)thiophen-2-yl]methyl}amino)-N-[(1S)-1-(4-fluorophenyl)ethyl] pyrazine-2-carboxamide (TFA salt)] | < 100 nM | 1000 to 10000 nM | –
Nc1ncnc2ccc(-c3ccc(CNc4nccnc4C(=O)NCc4cc(F)c(F)c(F)c4)s3)cc12 [Example 3.71, 3-({[5-(4-aminoquinazolin-6-yl)thiophen-2-yl]methyl}amino)-N-(3,4,5-trifluorobenzyl)pyrazine-2-carboxamide (TFA salt)] | < 100 nM | < 1000 nM | –
Nc1ncnc2ccc(-c3ccc(CNc4nccnc4C(=O)Nc4ccc(F)c(F)c4)s3)cc12 [Example 3.72, 3-({[5-(4-aminoquinazolin-6-yl)thiophen-2-yl]methyl}amino)-N-(3,4-difluorophenyl)pyrazine-2-carboxamide (TFA salt)] | > 5000 nM | > 10000 nM | –
Nc1ncnc2ccc(-c3ccc(CNc4nccnc4C(=O)NCc4cccc(F)c4)s3)cc12 [Example 3.73, 3-({[5-(4-aminoquinazolin-6-yl)thiophen-2-yl]methyl}amino)-N-(3-fluorobenzyl) pyrazine-2-carboxamide (TFA salt)] | < 100 nM | 1000 to 10000 nM | –
Nc1ncnc2ccc(-c3ccc(CNc4nccnc4C(=O)NCc4cccc(F)c4F)s3)cc12 [Example 3.74, 3-({[5-(4-aminoquinazolin-6-yl)thiophen-2-yl]methyl}amino)-N-(2,3-difluorobenzyl)pyrazine-2-carboxamide (TFA salt)] | 100 to 1000 nM | > 10000 nM | –
Nc1ncnc2ccc(-c3ccc(CNc4nccnc4C(=O)NCc4ccc(F)cc4F)s3)cc12 [Example 3.75, 3-({[5-(4-aminoquinazolin-6-yl)thiophen-2-yl]methyl}amino)-N-(2,4-difluorobenzyl)pyrazine-2-carboxamide (TFA salt)] | < 100 nM | > 10000 nM | –
Nc1ncnc2ccc(-c3ccc(CNc4nccnc4C(=O)NCc4cc(F)cc(F)c4)s3)cc12 [Example 3.76, 3-({[5-(4-aminoquinazolin-6-yl)thiophen-2-yl]methyl}amino)-N-(3,5-difluorobenzyl)pyrazine-2-carboxamide (TFA salt)] | < 100 nM | < 1000 nM | –
C[C@H](NC(=O)c1nccnc1NCc1ccc(-c2ccc3ncnc(N)c3c2)s1)c1ccc(F)c(F)c1 [Example 3.77, 3-({[5-(4-aminoquinazolin-6-yl)thiophen-2-yl]methyl}amino)-N-[(1S)-1-(3,4-difluorophenyl)ethyl] pyrazine-2-carboxamide (TFA salt)] | < 100 nM | < 1000 nM | –
C[C@H](NC(=O)c1nccnc1NCc1ccc(-c2cc3c(N)ncnc3cn2)s1)c1ccc(F)c(F)c1 [Example 3.78, 3-({[5-(4-aminopyrido[3,4-d]pyrimidin-6-yl)thiophen-2-yl]methyl}amino)-N-[(1S)-1-(3,4-difluorophenyl)ethyl] pyrazine-2-carboxamide (TFA salt)] | 100 to 1000 nM | < 1000 nM | –
C[C@H](NC(=O)c1nccnc1NCc1ccc(-c2cc3c(N)ncnc3cn2)s1)c1ccc(F)cc1 [Example 3.79, 3-({[5-(4-aminopyrido[3,4-d]pyrimidin-6-yl)thiophen-2-yl]methyl}amino)-N-[(1S)-1-(4-fluorophenyl)ethyl] pyrazine-2-carboxamide (TFA salt)] | 100 to 1000 nM | – | < 1000 nM
N#Cc1cnc(NCc2ccc(-c3ccc4ncnc(N)c4c3)s2)c(C(=O)NCc2ccc(F)c(F)c2)n1 [Example 3.80, 3-(((5-(4-aminoquinazolin-6-yl)thiophen-2-yl)methyl)amino)-6-cyano-N-(3,4-difluorobenzyl)pyrazine-2-carboxamide (TFA salt)] | 100 to 1000 nM | < 1000 nM | –
